Counter-ions that a name gives are not always drawn.
system: T1, primary mouse cortical neurons; assay: cells; set-up: Protection from NMDA-induced (30 uM, 10 min) neuronal death; Hoechst nuclear morphology by automated microscopy; settings: Cortical neurone, 20 h, read-out: % inhibition, inhibition of NMDA-induced cell death (protection score), 30 min pre-treatment
T1 construct: primary cortical neurons, DIV 10
Method in brief: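 On DIV 10, primary mouse cortical neurons were given compound at 10 μM for 30 min at 37 °C, then 30 μM NMDA for 10 min, washed, and kept 20 h with compound. Dead cells were scored by nuclear morphology, and % protection was derived from survival relative to vehicle + NMDA and untreated controls.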

SMILES	inhibition at 10 µM [%]
COc1cc2/c(=N/c3ccc(Br)cc3F)nc[nH]c2cc1OCC1CCN(C)CC1 [Vandetanib (Zactima)]	-8.86
CN(C)CCc1c[nH]c2ccc(C[C@H]3COC(=O)N3)cc12 [Zolmitriptan (Zomig)]	41.2
Oc1c(Cl)cc(Cl)c2cccnc12 [Chloroxine]	-4.86
CO[C@@H]1[C@@H](OC(N)=O)[C@@H](O)[C@H](Oc2ccc3c(O)c(NC(=O)c4ccc(O)c(CC=C(C)C)c4)c(=O)oc3c2C)OC1(C)C [Novobiocin sodium (Albamycin)]	-0.631
CCn1cc(C(=O)O)c(=O)c2ccc(C)nc21 [Nalidixic acid (NegGram)]	-2.4
O=c1[nH]cnc2[nH]ncc12 [Allopurinol Sodium (Aloprim)]	21.4
O=P(O)(O)C(O)(Cn1ccnc1)P(=O)(O)O [Zoledronic Acid (Zoledronate)]	-0.211
Cc1nc2n(c(=O)c1CCN1CCC(c3noc4cc(F)ccc34)CC1)CCCC2 [Risperidone (Risperdal)]	23.7
CCOC(=O)[C@H](CCc1ccccc1)N[C@@H](C)C(=O)N1[C@H](C(=O)O)C[C@@H]2CCC[C@@H]21 [Ramipril (Altace)]	-0.755
CCOC(=O)C1=C(C)NC(C)=C(C(=O)OC)C1c1cccc(Cl)c1Cl (stereo not drawn) [Felodipine (Plendil)]	-1.75
C[C@@H](NCCCc1cccc(C(F)(F)F)c1)c1cccc2ccccc12 [AMG-073 HCl (Cinacalcet hydrochloride)]	-14.8
Nc1ccc(O)c(C(=O)O)c1 [Mesalamine (Lialda)]	21.8
Nc1ccn([C@@H]2CS[C@H](CO)O2)c(=O)n1 [Lamivudine (Epivir)]	0.555
COc1cc(C(C)=O)ccc1OCCCN1CCC(c2noc3cc(F)ccc23)CC1 [Iloperidone (Fanapt)]	21.7
C[C@H]1C[C@@H]2[C@H]([C@@H](O)C[C@@]3(C)[C@H]2CC[C@]3(O)C(=O)CO)[C@@]2(C)C=CC(=O)C=C12 [Methylprednisolone]	7.52
Oc1cc2c(cc1O)[C@@H]1c3ccc(O)c(O)c3OC[C@]1(O)C2 [Hematoxylin (Hydroxybrazilin)]	1.27
Cc1onc(-c2ccccc2Cl)c1C(=O)N[C@@H]1C(=O)N2[C@@H]1SC(C)(C)[C@@H]2C(=O)O [Cloxacillin sodium (Cloxacap)]	0.144
COc1cc(CNC(=O)CCCC/C=C/C(C)C)ccc1O [Capsaicin]	-2.28
COc1c(N2CCNC(C)C2)c(F)cc2c(=O)c(C(=O)O)cn(C3CC3)c12 (stereo not drawn) [Gatifloxacin]	-10.3
C[C@H](Cn1cnc2c(N)ncnc21)OCP(=O)(O)O [Tenofovir (Viread)]	8.23
CC(=O)Oc1cc2c(s1)CCN(C(C(=O)C1CC1)c1ccccc1F)C2 (stereo not drawn) [Prasugrel (Effient)]	-7.75
OC[C@@H](O)[C@@H](O)[C@H](O)[C@H](O)CO [D-Mannitol (Osmitrol)]	5.76
O=C(O)Cc1ccccc1Nc1c(Cl)cccc1Cl [Diclofenac]	-4.34

SMILES	inhibition at 10 µM [%]
Cc1cccc(C)c1NC(=O)CN1CCCC1=O [Nefiracetam (Translon)]	7.17
Clc1cccc(Cl)c1NC1=NCCN1 [Clonidine hydrochloride (Catapres)]	-1.98
CCCSc1ccc2[nH]c(NC(=O)OC)nc2c1 [Albendazole (Albenza)]	28.3
C[C@@H](O)[C@H]1C(=O)N2C(C(=O)[O-])=C(SC3Cn4cnc[n+]4C3)[C@H](C)[C@H]12 (stereo partly drawn) [Biapenem]	3.3
NS(=O)(=O)c1cc(C(=O)O)c(NCc2ccco2)cc1Cl [Furosemide (Lasix)]	32.1
CCCCC(=O)O[C@]1(C(=O)CO)[C@@H](C)C[C@H]2[C@@H]3CCC4=CC(=O)C=C[C@]4(C)[C@@]3(F)[C@@H](O)C[C@@]21C [Betamethasone valerate (Betnovate)]	6.58
O=C(/C=C/c1ccc(O)c(O)c1)O[C@@H]1C[C@](O)(C(=O)O)C[C@@H](O)[C@H]1O [Chlorogenic acid]	-2.16
Cn1c(CCCC(=O)O)nc2cc(N(CCCl)CCCl)ccc21 [Bendamustine HCL]	9.61
OC[C@H]1OC(O)[C@H](O)[C@@H](O)[C@@H]1O (stereo partly drawn) [Dextrose (D-glucose)]	-6.8
CC(C)C[C@H](NC(=O)[C@H](Cc1ccccc1)NC(=O)c1cnccn1)B(O)O [Bortezomib (Velcade)]	-4.79
O=C1NC(=O)C(c2ccccc2)(c2ccccc2)N1 [Phenytoin (Lepitoin)]	21.2
COc1cc(O)c2c(c1)C(=O)c1cc(C)cc(O)c1C2=O [Rheochrysidin (Physcione)]	18.7
CC(NC(C)(C)C)C(=O)c1cccc(Cl)c1 (stereo not drawn) [Amfebutamone (Bupropion)]	2.08
C[C@@H]1O[C@@H](OC[C@H]2O[C@@H](Oc3c(-c4ccc(O)c(O)c4)oc4cc(O)cc(O)c4c3=O)[C@H](O)[C@@H](O)[C@@H]2O)[C@H](O)[C@H](O)[C@H]1O [Rutin (Rutoside)]	-3.76
Cc1[nH]c(=O)c(C#N)cc1-c1ccncc1 [Milrinone (Primacor)]	-10.4
C=C1[C@H](CO)[C@@H](O)C[C@@H]1n1cnc2c(=O)[nH]c(N)nc21 [Entecavir hydrate]	3.22
CC[C@@]1(O)C(=O)OCc2c1cc1n(c2=O)Cc2cc3ccccc3nc2-1 [Camptothecin]	-13.4
CNC(=O)c1cc(Oc2ccc(NC(=O)Nc3ccc(Cl)c(C(F)(F)F)c3)cc2)ccn1 [Sorafenib (Nexavar)]	-5.2
O=C(CCc1ccc(O)cc1)c1c(O)cc(O)cc1O [Phloretin (Dihydronaringenin)]	-1.62
CC(C(=O)O)c1cccc(C(=O)c2ccccc2)c1 (stereo not drawn) [Ketoprofen (Actron)]	30.2
CCN(CC)CC(=O)Nc1c(C)cccc1C [Lidocaine (Alphacaine)]	-8.6
CC(=O)OCC(=O)[C@@]1(O)CC[C@H]2[C@@H]3CCC4=CC(=O)C=C[C@]4(C)[C@H]3[C@@H](O)C[C@@]21C [Prednisolone acetate (Omnipred)]	-1.13
C/C=C1\[C@H]2C=C(C)C[C@]1(N)c1ccc(=O)[nH]c1C2 [(-)-Huperzine A]	-1.76

SMILES	inhibition at 10 µM [%]
O=C(c1ccc(OCCN2CCCCC2)cc1)c1c(-c2ccc(O)cc2)sc2cc(O)ccc12 [Evista (Raloxifene Hydrochloride)]	-19.3
O=c1[nH]cnc2c1ncn2[C@H]1CC[C@@H](CO)O1 [Didanosine (Videx)]	11.6
COc1ccc(/C=C/C(=O)Nc2ccccc2C(=O)O)cc1OC [Tranilast (SB 252218)]	-11.4
O=C(O)[C@H]1O[C@@H](Oc2cc3oc(-c4ccccc4)cc(=O)c3c(O)c2O)[C@H](O)[C@@H](O)[C@@H]1O [Baicalin]	-3.47
CC(C(=O)O)c1ccc(-c2ccccc2)c(F)c1 (stereo not drawn) [Flurbiprofen (Ansaid)]	14
O=C(O)/C=C/c1ccc(O)c(O)c1 [Caffeic acid]	-2.37
NC(=O)c1ncn([C@@H]2O[C@H](CO)[C@@H](O)[C@H]2O)c1N [Acadesine]	4.99
OCCN(CCO)c1nc(N2CCCCC2)c2nc(N(CCO)CCO)nc(N3CCCCC3)c2n1 [Dipyridamole (Persantine)]	-3.58
CCOc1nc2cccc(C(=O)OC(C)OC(=O)OC3CCCCC3)c2n1Cc1ccc(-c2ccccc2-c2nn[nH]n2)cc1 (stereo not drawn) [Candesartan cilexetil (Atacand)]	7.42
CCC(=O)OCC(=O)[C@@]1(OC(=O)CC)[C@@H](C)C[C@H]2[C@@H]3CCC4=CC(=O)C=C[C@]4(C)[C@@]3(F)[C@@H](O)C[C@@]21C [Betamethasone dipropionate]	6.47
O=C1CCC[C@@H]2[C@H]3CCC[N@+]4([O-])CCC[C@@H](CN12)[C@@H]34 [Oxymatrine (Matrine N-oxide)]	-1.44
CCn1cc(C(=O)O)c(=O)c2cc(F)c(N3CCNCC3)cc21 [Norfloxacin (Norxacin)]	2.34
O=c1c(-c2ccc(O)cc2)coc2c([C@@H]3O[C@H](CO)[C@@H](O)[C@H](O)[C@H]3O)c(O)ccc12 [Puerarin (Kakonein)]	-3.03
CO[C@H]1/C=C/O[C@@]2(C)Oc3c(C)c(O)c4c(O)c(c5c(nc6cc(C)ccn65)c4c3C2=O)NC(=O)/C(C)=C\C=C\[C@H](C)[C@H](O)[C@@H](C)[C@@H](O)[C@@H](C)[C@H](OC(C)=O)[C@@H]1C [Rifaximin (Xifaxan)]	1.93
O=c1oc2cc(O)ccc2s1 [Tioxolone]	-0.329
Cn1ccnc1S [Methimazole (Tapazole, Northyx)]	15.5
OC[C@H]1O[C@@H](OCCc2ccc(O)cc2)[C@H](O)[C@@H](O)[C@@H]1O [Salidroside (Rhodioloside)]	11.2
CCCCC1C(=O)N(c2ccccc2)N(c2ccccc2)C1=O [Phenylbutazone (Butazolidin, Butatron)]	47.4
C=CC[N+]1([C@H]2C[C@H]3[C@@H]4CC[C@H]5C[C@H](O)[C@@H](N6CCOCC6)C[C@]5(C)[C@H]4CC[C@]3(C)[C@H]2OC(C)=O)CCCC1 [Rocuronium bromide]	-0.727
CC1(C)S[C@@H]2[C@H](NC(=O)[C@H](N)c3ccc(O)cc3)C(=O)N2[C@H]1C(=O)O [Amoxicillin (Amox)]	-1.15
Nc1ncn([C@H]2C[C@H](O)[C@@H](CO)O2)c(=O)n1 [Decitabine]	11.3
C=C1c2cccc(O)c2C(O)=C2C(=O)[C@]3(O)C(O)=C(C(N)=O)C(=O)[C@@H](N(C)C)[C@@H]3[C@@H](O)[C@H]12 [Methacycline hydrochloride (Physiomycine)]	13.5
CCOC(=O)C(C)(C)Oc1ccc(Cl)cc1 [Clofibrate (Atromid-S)]	-1.89

Reference: article PMC7489219 (Molecular Brain, 2020)
